Peptide text beside a SMILES is read from it. * marks the point of attachment. Cbz = O=C(OCc1ccccc1)*
Assays:
gp130 receptor = molecular target: T1, gp130 receptor (Homo sapiens, UniProt P40189); test: p-gp130 (p-Tyr) ELISA, HTS validation and dose response in U87-MG cells; assay type: cell-based; details: for p-gp130 (p-Tyr) dose response activity: dose response of validated hits, FIG. 4; for activation of gp130 receptor / increase of p-gp130: validation testing, truncated humanin peptides
T1 construct: express more than 10 times more endogenous gp130; endogenous in cells; host or cells: U87-MG
T1 sequence (P40189 23-918): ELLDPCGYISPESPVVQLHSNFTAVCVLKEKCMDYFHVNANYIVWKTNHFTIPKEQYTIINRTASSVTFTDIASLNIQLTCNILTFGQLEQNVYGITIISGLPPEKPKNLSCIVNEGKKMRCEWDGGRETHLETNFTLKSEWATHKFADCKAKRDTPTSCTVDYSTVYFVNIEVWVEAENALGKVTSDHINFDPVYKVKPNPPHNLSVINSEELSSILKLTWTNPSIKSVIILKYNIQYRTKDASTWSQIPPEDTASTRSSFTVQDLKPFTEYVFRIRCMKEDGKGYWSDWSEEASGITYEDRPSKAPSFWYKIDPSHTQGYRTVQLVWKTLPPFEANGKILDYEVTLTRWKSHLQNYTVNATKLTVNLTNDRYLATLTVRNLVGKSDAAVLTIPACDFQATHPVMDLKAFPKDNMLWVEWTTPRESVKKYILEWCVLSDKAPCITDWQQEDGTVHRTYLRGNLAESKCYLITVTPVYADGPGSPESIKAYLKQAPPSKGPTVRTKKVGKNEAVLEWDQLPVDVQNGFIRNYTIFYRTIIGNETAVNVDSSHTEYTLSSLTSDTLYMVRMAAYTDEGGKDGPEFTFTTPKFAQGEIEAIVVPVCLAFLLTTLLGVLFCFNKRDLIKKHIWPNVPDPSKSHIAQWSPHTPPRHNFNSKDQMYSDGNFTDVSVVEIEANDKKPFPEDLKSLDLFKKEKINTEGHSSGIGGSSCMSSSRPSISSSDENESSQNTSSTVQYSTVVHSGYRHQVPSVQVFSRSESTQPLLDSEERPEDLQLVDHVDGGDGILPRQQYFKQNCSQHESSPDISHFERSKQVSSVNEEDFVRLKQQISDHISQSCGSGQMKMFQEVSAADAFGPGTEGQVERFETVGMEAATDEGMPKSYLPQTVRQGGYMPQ
From the text: (§1) An ELISA assay for the evaluation of the p-gp130 levels was developed. This was a commercial ELISA—DuoSet ELISA from R&D systems (cat #DYC3407-2) and detected the tyrosine phosphorylation of gp130. […] In addition, a commercially available p-AKT (1,2,3) AlphaLISA kit was used (PE cat #ALSU-PAKT-B-HV) for the HTS assay.
(§2) Small molecules that act as HN mimetics represent a new class of AD therapeutics. Through screening, validated hits that increase both p-gp-130 and p-Akt levels were identified. Human glioblastoma cells were used, U87-MG. Several hits that enhance p-gp 130 were identified as well as several compounds that can increase p-AKT (FIG. 3).
(§3) Into a 96 well plate was added 99 μL of warm DMEM/F12 without FBS, then 1 uL of compounds at 1 mM were loaded into the96 well plate. These generated the compounds at 2×. Into a 96 well plate was added IL6/IL6R solution to achieve 6.6×10−4 mg/mL and 3.3×10−4 mg/mL respectively, this is 2× concentration. For this, primary EL6 stock (0.1 mg/mL) was diluted150-fold and IL6R stock (0.1 mg/mL) 300-fold to treat cells with final concentration of 6.6×10−4 mg/mL and 3.3×10−4 mg/mL respectively. 10 ml of Sample Diluent Concentrate 2 (2X)(Part #895891/DYC002)+10 ml ddH2O+200 ul of 100 mM activated Na3VO4 (aliquots at −20C)+20 ul of 10 mg/ml aprotinin (stock at 4C)+20 ul of 10 mg/ml leupeptin (aliquots at −20C)+200 ul PIC-protected from light. Lysis buffer containing 1% NP-40 Alternative, 20 mM Tris (pH 8.0), 137 mM NaCl, 10% glycerol, 2 mM EDTA, 1 mM activated sodium orthovanadate, 10 μg/mL Aprotinin, 10 μg/mL Leupeptin. Placed on ice. Removed the media from the cell plate and add 50 μL of DMEM/F12 without FBS. Then, added 50 μL of the compounds or positive control IL6/IL6R at 2× into the cell plate using the multichannel (FIG. 7). Allowed the treatment to take place for 10 minutes in the incubator at 37° C. and 5% CO2. Cells were lysed with 130 μL of ice-cold lysis buffer. Placed cells on ice for 15 min, then in the −80° C. overnight. Next, we prepared the ELISA plate by warming coating buffer to RT. 12 strips were coated with capture antibody. For this: 121 μL of 180 μg/mL of capture antibody (R&D DYC3407-2) was added into 21.48 mL of coating buffer. 100 μL of this solution was added to each well, covered with a lead and incubated at RT overnight and then conducted the ELISA assay using the manufacture outlined protocol. The cell lysate from the HTS was prepared using the AlphaLISA buffer to measure levels of p-AKT after compound treatment.

p-gp130 and p-Akt = test: HN mimetic activity (p-gp130 and p-Akt); assay type: cell-based, human
From the text: as §1, §2
as §3, with “For this: 121 μL of 180 μg/mL of capture antibody (R&D DYC3407-2) was added into 21.48 mL of coating buffer. 100 μL of this solution was added to each well, covered with a lead and incubated at RT overnight and then conducted the ELISA assay using the manufacture outlined protocol. The cell lysate from the HTS was prepared using the AlphaLISA buffer to measure levels of p-AKT after compound treatment.” left out

p-AKT = p-AKT AlphaLISA in U87-MG cells; assay type: cell-based, human; design: dose or concentration left out as unconfirmed; details: FIG. 2D
From the text: as §1, §2
Into a 96 well plate was added 99 μL of warm DMEM/F12 without FBS, then 1 uL of compounds at 1 mM were loaded into the96 well plate. These generated the compounds at 2×. Into a 96 well plate was added IL6/IL6R solution to achieve 6.6×10−4 mg/mL and 3.3×10−4 mg/mL respectively, this is 2× concentration. For this, primary EL6 stock (0.1 mg/mL) was diluted150-fold and IL6R stock (0.1 mg/mL) 300-fold to treat cells with final concentration of 6.6×10−4 mg/mL and 3.3×10−4 mg/mL respectively. 10 ml of Sample Diluent Concentrate 2 (2X)(Part #895891/DYC002)+10 ml ddH2O+200 ul of 100 mM activated Na3VO4 (aliquots at −20C)+20 ul of 10 mg/ml aprotinin (stock at 4C)+20 ul of 10 mg/ml leupeptin (aliquots at −20C)+200 ul PIC-protected from light. […]

p-gp130 = p-gp130 AlphaLISA in U87-MG cells; assay type: cell-based, human; details: 30 μM for 3 hours, FIG. 2D
Procedure: FIG. 2. Development of p-gp 130 and gp130 AlphaLISA assays (A) Evaluation of p-gp 130 and gp 130 levels in U87-MG and SH-SY5Y cells after treatment with compound 2 by immunoblotting. (B) Principle of AlphaLISA assay. (C) Data of developed gp-130 AlphaLISA assay. Analyte is recombinant gp130 (EC domain).
Eight different antibodies (more than 20 combinations) were tested in a course of p-gp130 and gp130 AlphaLISA development. The principle of the AlphaLISA assay is depicted in FIG. 2B. […] Lysate buffer composition and treatment conditions have been optimized.

H-TSEINLPVK-OH [DDL-814, NH2-Thr-Ser-Glu-Ile-Asn-Leu-Pro-Val-Lys-COOH]
p-gp130 (p-Tyr) dose response activity (gp130 receptor): good activity | activation of gp130 receptor / increase of p-gp130 (gp130 receptor): activate the gp130 receptor | activation of gp130 receptor / increase of p-gp130 (gp130 receptor; listed as P3): increased p-gp-130

H-TGEINLPVK-OH [DDL-815, NH2-Thr-Gly-Glu-Ile-Asn-Leu-Pro-Val-Lys-COOH]
HN mimetic activity (p-gp130 and p-Akt): weaker HN mimetic activity through lower p-gp130 and p-Akt

CC[C@H](C)[C@H](NC(=O)[C@H](CCC(=O)O)NC(=O)CNC(=O)[C@@H](N)[C@@H](C)O)C(=O)O [DDL-842, NH2-Thr-Gly-Glu-Ile-COOH] (H-TGEI-OH)
HN mimetic activity (p-gp130 and p-Akt): weak HN mimetic activity

C#CCSC[C@H](N)C(=O)O [S-propargyl-cyctein (SPRC), S-propargyl-cyctein]
p-AKT AlphaLISA signal (p-AKT): significant increaste | p-gp130 AlphaLISA signal (p-gp130): significant increaste

CCC(=O)Nc1ccc2nc(C)n(-c3cccc(Cl)c3)c(=O)c2c1 [DDL-813]
p-gp130 (p-Tyr) dose response activity (gp130 receptor): most potent showing submicromolar activity

Cbz-Thr-Ser-NH2 [DDL-841]
HN mimetic activity (p-gp130 and p-Akt): increased HN mimetic activity
